{
  "source": "patent US9271916B2",
  "about": "“Composition for reducing skin wrinkles including PDE5 inhibitor” (SK Chemicals Co., Ltd., priority 2011, dated 2016)",
  "key": {"[1]": {"system": "type I procollagen production in normal human dermal fibroblasts (NHDF, cell line 7F3802)", "experiment": "Procollagen type I production in normal human dermal fibroblasts", "format": "cell-based", "conditions": "48 hours, negative control 100.0±0.0%, p<0.01", "experimental": "Effects by mirodenafil hydrochloride, test compound, on production of type I collagen was evaluated with normal human dermal fibroblasts.\nCell line 7F3802 was used as a normal human dermal fibroblast (hereinafter, ‘NHDF’). Frozen NHDF was thawed and subcultured, and passages 5 to 7 were used for this test.\nL-Ascorbic acid (Sigma-Aldrich Co., U.S.A.) was used as a positive control because there are lots of comparative experimental data using l-ascorbic acid. L-Ascorbic acid has been reported to be effective in acceleration of collagen production when evaluating with fibroblasts. DMSO (Dimethyl sulfoxide) was used as a diluent.\n(§1) 0.01 mL of aliquot was taken from 10 mM of mirodenafil hydrochloride stock solution, and 9.99 mL of DMSO was added to the aliquot to make 10,000 nM of sample. This sample was additionally diluted to 1,000 nM of concentration right before being used. 10,000 nM and 1,000 nM of solutions were diluted 100 times with serum-free medium to […], right before being applied.\nFor making a positive control, 20,000 μM (3.522 mg/mL) of 1-ascorbic acid was prepared by dissolving it with serum-free medium, and then the solution was diluted to 200 μM.\nTwo cell culture media were used in this experiment. Complete medium consisting of FBS (fetal bovine serum), Penicillin-Streptomycin (10,000 U/mL of penicillin and 10,000 ug of streptomycin) and DMEM/F12 (dulbecco's modified eagle's medium/F12) was used during subculture before test compound was applied, and then serum-free medium consisting of Penicillin-Streptomycin and DMEM (dulbecco's modified eagle's medium) was used.\nPre-treatment (cell culture and treatment of test compound) was performed as follows: After culturing in complete medium, 400 μl of NHDF was seeded into 48-well plates (1×10^5 cells/400 μl/well), and cultured at a condition of 37° C. and 5% CO2 incubator (MCO-20AIC, Sanyo, Japan) for 24 hours. After culture was completed, the remaining media were removed from each well. 500 μl of D-PBS (D-phosphate buffered saline) was added to each well to wash wells. […]"}, "[2]": {"system": "UVB-induced skin wrinkles", "experiment": "Wrinkle reduction in UVB-irradiated hairless mice", "format": "in vivo", "conditions": "for Wrinkle reduction (skin photographs): 10 mM (about 5%), applied twice daily for 14 days after wrinkle induction", "experimental": "An examination was made as to whether the PDE5 inhibitors can substantially reduce skin wrinkles of animal models. Hairless mice, aged 7 weeks, were irradiated with UVB (290-320 nm, 312 nm) to induce wrinkles. The compound or the control was applied to each mouse and its influence on the induced wrinkles was evaluated. More specifically, the mice were irradiated with 60 mJ/cm^2 (1 minimal […] dose (MED)) for 3 days weekly during the first and second week after wrinkling, 120 mJ/cm^2 (2 MED) for 3 days during the third week after wrinkling, 180 mJ/cm^2 (3 MED) for 3 days during the fourth week after wrinkling, 240 mJ/cm^2 (4 MED) for 3 days weekly during the fifth to eighth week after wrinkling, and 240 mJ/cm^2 (4 MED) for 5 days weekly during the ninth to fifteenth week after wrinkling. During the sixteenth and seventeenth week after wrinkling, about 0.5 ml of squalene-OOH, an oxidation product of squalene by UV irradiation, was applied once using a brush to induce deeper wrinkles. Thereafter, the compound or the control was applied to each mouse twice daily for 14 days."}, "[3]": {"system": "matrix metalloproteinase-1 (MMP-1) expression in normal human dermal fibroblasts", "experiment": "Inhibition of MMP-1 expression in normal human dermal fibroblasts", "format": "cell-based", "conditions": "NHDF, negative control 189.7±10.9%, p<0.01", "experimental": "Effects by mirodenafil hydrochloride, test compound, on inhibition of matrix metalloproteinase-1 (MMP-1) expression was evaluated with normal human dermal fibroblasts.\n(−)Epigallocatechin gallate (EGCG) (Sigma-Aldrich Co., U.S.A.) was used as a positive control because there are lots of comparative experimental data using the EGCG. EGCG has been reported to be effective in inhibition of MMP-1 expression when evaluating with fibroblasts. DMSO (Dimethyl sulfoxide) was used as a diluent.\nas §1\nFor making a positive control, 10,000 μM (4.584 mg/mL) of EGCG was prepared by dissolving it with serum-free medium, and then the solution was diluted to 10 μM (0.0046 mg/mL).\nBCA protein assay kit (Lot No.: KK140637, Pierce Biotechnology Inc., USA) was used for total protein analysis, and matrix metalloproteinase-1 (MMP-1), human, biotrak ELISA system kit (Lot No.: 398061, GE Healthcare, UK) was used for MMP-1 analysis.\nThe contents of MMP-1 in wells to which negative control, test compound or positive control was added were divided by the content of total protein. The adjusted content of MMP-1 was used to calculate “Inhibition rate of MMP-1 expression” with the following equation. This test was repeated three times. Inhibition rate of MMP-1 expression (%)=A/B×100\nA: MMP-1 amount of sample or positive control\nB: MMP-1 amount of negative control\nThe other materials and methods which were not mentioned in detail were similar to those of Example 3."}},
  "note": "Structures can show the parent of a compound that is named as a salt.",
  "data": [
    {"compound": "O=C1O[C@H]([C@@H](O)CO)C(O)=C1O", "note": "[L-Ascorbic acid]", "values": [
      {"measurement": "Synthesis rate of procollagen type I", "setting": "[1]; 35.2 μg/mL (200 μM)", "result": "175.7±11.5", "unit": "%"}
    ]},
    {"compound": "CCCOc1ccc(S(=O)(=O)N2CCN(CCO)CC2)cc1-c1nc2c(CCC)cn(CC)c2c(=O)[nH]1.Cl.Cl", "note": "[mirodenafil 2HCl]", "values": [
      {"measurement": "Wrinkle reduction (skin photographs)", "setting": "[2]", "result": "Wrinkle reduction was observed"}
    ]},
    {"compound": "CCCOc1ccc(S(=O)(=O)N2CCN(CCO)CC2)cc1-c1nc2c(CCC)cn(CC)c2c(=O)[nH]1", "note": "[mirodenafil free base, mirodenafil]", "values": [
      {"measurement": "Wrinkle reduction (skin photographs)", "setting": "[2]", "result": "Wrinkle reduction was observed"}
    ]},
    {"compound": "CCCOc1ccc(S(=O)(=O)N2CCN(CCO)CC2)cc1-c1nc2c(CCC)cn(CC)c2c(=O)[nH]1", "note": "[mirodenafil hydrochloride]", "values": [
      {"measurement": "Synthesis rate of procollagen type I", "setting": "[1]; 10 nM", "result": "149.7±12.4", "unit": "%"},
      {"measurement": "Synthesis rate of procollagen type I", "setting": "[1]; 100 nM", "result": "189.8±6.4", "unit": "%"},
      {"measurement": "MMP-1 expression (% of control)", "setting": "[3]; 10 nM", "result": "115.8±9.1", "unit": "%"},
      {"measurement": "MMP-1 expression (% of control)", "setting": "[3]; 100 nM", "result": "97.9±8.5", "unit": "%"}
    ]},
    {"compound": "CC1=C(/C=C/C(C)=C/C=C/C(C)=C/C(=O)O)C(C)(C)CCC1", "note": "[retinoic acid]", "values": [
      {"measurement": "Formation and peeling of cornified layers of the skin", "setting": "[2]; 0.05%, topical, twice then once daily", "result": "Cornified layers were formed and continuously peeled"}
    ]},
    {"compound": "(−)Epigallocatechin gallate [EGCG]", "values": [
      {"measurement": "MMP-1 expression (% of control)", "setting": "[3]; 0.0046 mg/mL (10 μM)", "result": "102.3±18.7", "unit": "%"}
    ]}
  ]
}
